# Measurements from EP4512806A1, “MOLECULAR GLUE DEGRADERS AND USES THEREOF” (Mablink Bioscience, priority 2023, dated 2025).
# What was measured:
# [1] = In vivo mice tolerability assessment; conditions: female CD-1 mice, single intravenous 1mg/kg dose, Mean
# Experimental: All animal procedures were performed in accordance with the European Union directive 86/609/EEC. Experiments were performed under individual permit and in accredited animal care facilities.
# Mouse tolerability experiments were performed with selected compounds of the disclosure. Female CD-1 mice (n=5 mice per group) were treated with a single intravenous 1mg/kg dose of compound. Vehicle was PBS pH 6.0. Mice were carefully monitored for mortality, external clinical findings, weight loss, behavior and apparent signs of toxicity over the course of 21 days.
# 340 protein kinases = assay: Kinase screening assay (radiometric 33PanQinase ActivityAssay); format: biochemical, human; conditions: final compound concentration of 10 µM; most inhibited kinases belong to CMGC family, particularly CDK; 23 out of the 30 most inhibited were CDK/Cyclin complexes
# Experimental: Compound 2384 according to the disclosure was subjected to kinase screening assays (performed at Reaction Biology, Germany). The screening assay was performed at a final compound concentration of 10 µM. A radiometric protein kinase assay (33PanQinase® ActivityAssay) was used for measuring the kinase activity of 340 protein kinases. All kinase assays were performed in 96-well FlashPlates™ from Perkin Elmer (Boston, MA, USA) in a 50 µL reaction volume. […] All PKC assays (except the PKC-mu and the PKC-nu assay) additionally contained 1 mM CaCl2, 4 mM EDTA, 5 µg/ml Phosphatidylserine and 1 µg/ml 1,2-Dioleyl-glycerol. The CAMK1D, CAMK2A, CAMK2B, CAMK2D, CAMK2G, CAMK4, CAMKK1, CAMKK2, DAPK2, EEF2K, MYLK, MYLK2 and MYLK3 assays additionally contained 1 µg/ml Calmodulin and 0.5 mM CaCl2. The PRKG1 and PRKG2 assays additionally contained 1 µM cGMP. The DNA-PK assay additionally contained 2.5 µg/ml DNA. The protein kinase reaction cocktails were incubated at 30°C for 60 minutes. The reaction was stopped with 50 µl of 2 % (v/v) H3PO4, plates were aspirated and washed two times with 200 µL 0.9 % (w/v) NaCl. Incorporation of 33Pi (counting of "cpm") was determined with a microplate scintillation counter (Microbeta, Wallac). All protein kinase assays were performed with a BeckmanCoulter Biomek 2000/SL robotic system. […]
# CycK = biological target: T1, CycK (Homo sapiens, UniProt O75909); assay: CycK protein quantification by Western Blot in JIMT-1 cells; format: cell-based
# T1 construct: endogenous in cells; host or cells: JIMT-1
# T1 sequence (O75909 whole entry): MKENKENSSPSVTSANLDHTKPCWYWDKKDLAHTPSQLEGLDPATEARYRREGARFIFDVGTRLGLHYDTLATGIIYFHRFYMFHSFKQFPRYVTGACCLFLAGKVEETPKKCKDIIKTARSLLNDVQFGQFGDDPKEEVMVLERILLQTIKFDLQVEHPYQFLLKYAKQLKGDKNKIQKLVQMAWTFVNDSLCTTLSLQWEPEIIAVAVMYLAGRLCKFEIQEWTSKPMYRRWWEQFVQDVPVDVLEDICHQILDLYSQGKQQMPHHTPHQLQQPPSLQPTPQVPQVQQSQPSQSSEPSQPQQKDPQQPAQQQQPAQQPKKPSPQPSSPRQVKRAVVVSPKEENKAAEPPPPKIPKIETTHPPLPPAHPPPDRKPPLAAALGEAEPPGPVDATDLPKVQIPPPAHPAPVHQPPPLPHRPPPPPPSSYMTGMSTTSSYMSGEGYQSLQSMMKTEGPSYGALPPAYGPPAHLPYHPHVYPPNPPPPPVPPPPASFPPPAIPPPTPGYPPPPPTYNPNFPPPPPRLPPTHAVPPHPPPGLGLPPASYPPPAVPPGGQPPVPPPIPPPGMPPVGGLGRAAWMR
# T1 sequence (Q9NYV4 whole entry partner): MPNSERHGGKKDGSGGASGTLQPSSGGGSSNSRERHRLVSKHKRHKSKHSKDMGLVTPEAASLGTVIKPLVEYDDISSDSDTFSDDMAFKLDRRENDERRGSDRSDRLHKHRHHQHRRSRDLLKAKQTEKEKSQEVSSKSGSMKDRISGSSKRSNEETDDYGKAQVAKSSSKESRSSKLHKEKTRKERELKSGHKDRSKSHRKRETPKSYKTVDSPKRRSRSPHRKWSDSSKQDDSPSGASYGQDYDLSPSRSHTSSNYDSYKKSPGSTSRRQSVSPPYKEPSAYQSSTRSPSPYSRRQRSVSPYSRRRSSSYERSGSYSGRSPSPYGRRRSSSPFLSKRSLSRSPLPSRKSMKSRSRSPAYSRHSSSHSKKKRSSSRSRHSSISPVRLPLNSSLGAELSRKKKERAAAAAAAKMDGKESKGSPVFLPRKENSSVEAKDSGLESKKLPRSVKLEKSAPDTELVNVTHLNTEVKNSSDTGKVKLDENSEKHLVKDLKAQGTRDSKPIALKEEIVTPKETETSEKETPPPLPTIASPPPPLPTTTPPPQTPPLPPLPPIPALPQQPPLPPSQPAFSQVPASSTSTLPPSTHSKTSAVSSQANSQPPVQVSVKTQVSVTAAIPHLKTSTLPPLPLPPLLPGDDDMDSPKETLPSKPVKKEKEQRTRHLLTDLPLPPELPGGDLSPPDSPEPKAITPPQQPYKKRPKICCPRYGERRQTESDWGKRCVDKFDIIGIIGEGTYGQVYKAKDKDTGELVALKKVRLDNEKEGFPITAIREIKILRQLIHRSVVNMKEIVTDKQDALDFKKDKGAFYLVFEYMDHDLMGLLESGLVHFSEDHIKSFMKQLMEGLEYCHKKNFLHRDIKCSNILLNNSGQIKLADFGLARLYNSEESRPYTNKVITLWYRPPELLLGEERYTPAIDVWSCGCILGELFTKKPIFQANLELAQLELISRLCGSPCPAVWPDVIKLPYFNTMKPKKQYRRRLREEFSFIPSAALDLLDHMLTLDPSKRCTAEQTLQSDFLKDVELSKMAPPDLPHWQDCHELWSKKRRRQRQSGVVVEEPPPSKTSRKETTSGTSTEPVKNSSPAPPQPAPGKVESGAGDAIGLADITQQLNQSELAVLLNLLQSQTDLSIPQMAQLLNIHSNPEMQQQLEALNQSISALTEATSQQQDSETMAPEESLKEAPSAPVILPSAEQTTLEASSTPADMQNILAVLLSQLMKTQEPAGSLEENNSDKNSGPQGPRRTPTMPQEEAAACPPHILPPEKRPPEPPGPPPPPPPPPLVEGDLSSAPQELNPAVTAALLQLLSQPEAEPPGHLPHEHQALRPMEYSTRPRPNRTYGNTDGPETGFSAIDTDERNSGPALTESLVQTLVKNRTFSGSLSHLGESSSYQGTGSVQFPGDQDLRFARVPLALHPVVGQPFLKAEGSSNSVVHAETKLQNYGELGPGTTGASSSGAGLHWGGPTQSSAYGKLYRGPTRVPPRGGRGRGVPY
# T1 sequence (Q16531 whole entry partner): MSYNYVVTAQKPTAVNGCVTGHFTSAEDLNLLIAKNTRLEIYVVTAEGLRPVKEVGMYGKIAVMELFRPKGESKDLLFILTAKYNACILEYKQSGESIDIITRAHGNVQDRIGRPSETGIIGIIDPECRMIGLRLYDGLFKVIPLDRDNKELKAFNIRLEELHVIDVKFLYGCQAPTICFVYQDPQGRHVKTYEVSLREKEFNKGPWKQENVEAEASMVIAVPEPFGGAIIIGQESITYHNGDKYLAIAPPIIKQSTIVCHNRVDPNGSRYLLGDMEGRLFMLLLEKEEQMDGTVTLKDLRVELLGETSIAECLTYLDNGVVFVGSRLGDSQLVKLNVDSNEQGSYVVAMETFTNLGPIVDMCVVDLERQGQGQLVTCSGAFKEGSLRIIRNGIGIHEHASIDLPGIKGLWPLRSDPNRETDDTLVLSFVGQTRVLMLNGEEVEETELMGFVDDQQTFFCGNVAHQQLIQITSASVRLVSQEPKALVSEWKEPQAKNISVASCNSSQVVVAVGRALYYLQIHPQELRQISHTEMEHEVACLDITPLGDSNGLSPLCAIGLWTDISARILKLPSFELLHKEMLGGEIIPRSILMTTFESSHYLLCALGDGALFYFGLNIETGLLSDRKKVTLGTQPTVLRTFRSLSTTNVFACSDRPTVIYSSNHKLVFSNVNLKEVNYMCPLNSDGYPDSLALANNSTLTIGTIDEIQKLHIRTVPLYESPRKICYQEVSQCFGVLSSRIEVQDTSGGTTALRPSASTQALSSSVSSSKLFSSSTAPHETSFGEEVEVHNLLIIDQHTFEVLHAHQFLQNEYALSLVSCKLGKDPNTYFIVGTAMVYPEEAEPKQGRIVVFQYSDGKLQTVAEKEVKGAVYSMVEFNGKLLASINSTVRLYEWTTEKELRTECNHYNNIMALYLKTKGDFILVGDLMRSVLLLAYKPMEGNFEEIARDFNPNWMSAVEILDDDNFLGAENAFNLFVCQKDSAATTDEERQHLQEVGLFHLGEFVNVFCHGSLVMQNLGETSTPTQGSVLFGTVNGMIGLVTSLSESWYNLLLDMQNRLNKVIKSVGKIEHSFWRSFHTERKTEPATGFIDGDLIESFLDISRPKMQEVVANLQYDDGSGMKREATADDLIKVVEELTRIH
# Experimental: 1×10^6 JIMT-1 cells were plated in 3mL of DMEM/FBS 90:10 (v/v) in 6-well plates and incubated overnight. Cells were treated with the compound 2384 of the invention with or without the proteasome inhibitor MG-132 (MedChemExpress, Cat HY-13259) for 2h. Cells were harvested, and protein were extracted using complete RIPA buffer (RIPA buffer, 1 mM DTT, 1M NaF, 100 mM sodium orthovanadate, phosphatase inhibitor buffer and protease inhibitors) for 1 hour on ice. Lysate were centrifuged 15min at 12 000g at 4°C. and proteins were mixed with 4x Laemmli Sample Buffer (Bio-Rad), heated at 95 °C for 5 mins and separated by SDS PAGE (PROTEAN TGX Stain-Free Gels, Bio-Rad). Proteins were then transferred onto PVDF membrane (iBlot®2 PVDF stacks, Invitrogen) using the iBlot2 device (Invitrogen) and blocked with TBS buffer (Intercept® Blocking Buffer, LI-COR Biosciences). Primary antibodies were incubated overnight at 4°C and secondary antibodies (IRDye Infrared Dyes from LI-COR Biosciences) 1 hour at room temperature. Used primary antibody were: anti-CycK (cat#A301-939A, Bethyl Laboratories, dil. 1:1000) and anti-β-actin (cat#A5441, Sigma-Aldrich, dil. 1:5000). Membranes were scanned using a c500 Imaging System (Azure Biosystems) and densitometric quantification were performed using imaged software. Protein levels were normalized against β-actin.
# [2] = test system: panel of human cancer cell lines; assay: In vitro cytotoxicity assay (MTT), panel of cell lines; format: cell-based
# Description: Human cancer cell lines used in the present project were purchased from either the American Type Culture Collection (ATCC), The Leibniz Institute DSMZ German Collection of Microorganisms and Cell Cultures GmbH (DSMZ) or the European Collection of Authenticated Cell Cultures (ECACC). For use in experiments, cells were cultivated following good and established cell culture practices, following instructions from the original ATCC/DSMZ/ECACC supplier for cell culture media & supplement, cryopreservation, and subculturing procedures. Cells were incubated under a 5% CO2 atmosphere at 37°C for no longer than 2 months.
# In vitro cytotoxicity of compounds of the disclosure was assessed on several cancerous human cell lines. Cells were plated in 96-well plates at an appropriate density depending on the cell line (between 1000 and 10 000 cells/well in 100µL of appropriate culture media) and incubated at 37°C for 24 hours. Serial dilutions of the tested compound previously dissolved in culture media (50µL) were added, and incubation was carried at 37°C out for 6 days. MTT (5mg/mL in PBS, 20µL, Sigma-Aldrich) was added into the wells, and incubation was continued for 1 to 4 hours at 37°C. Culture media was then carefully removed, and well content was homogeneously dissolved with acidified isopropanol. Absorbance values were measured on a microplate reader using a wavelength of 570 nm (with a reference wavelength of 690 nm). The IC50 concentration values compared to untreated control cells were determined using inhibition dose response curve fitting (GraphPad Prism 9). Exatecan mesylate (cat#HY-13631A) and CR8 (CAS# 294646-77-8; cat#HY-18340) were purchased from MedChemExpress (China).
smiles,measurement,setting,value
N[C@H]1CC[C@H](Nc2nc(NCc3ccc(-c4ccccn4)cc3)n3ncc(Br)c3n2)CC1 [Compound 2384],average weight change (% initial weight),[1]; Study Day 1,0.0 % initial weight
same,average weight change (% initial weight),[1]; Study Day 2,-2.5 % initial weight
same,average weight change (% initial weight),[1]; Study Day 3,-7.1 % initial weight
same,average weight change (% initial weight),[1]; Study Day 4,-14.6 % initial weight
same,average weight change (% initial weight),[1]; Study Day 5,-15.2 % initial weight
same,average weight change (% initial weight),[1]; Study Day 6,-14.9 % initial weight
same,average weight change (% initial weight),[1]; Study Day 7,-12.4 % initial weight
same,average weight change (% initial weight),[1]; Study Day 8,-9.2 % initial weight
same,average weight change (% initial weight),[1]; Study Day 9,-7.3 % initial weight
same,average weight change (% initial weight),[1]; Study Day 10,-1.9 % initial weight
same,average weight change (% initial weight),[1]; Study Day 11,-0.7 % initial weight
same,average weight change (% initial weight),[1]; Study Day 12,4.1 % initial weight
same,average weight change (% initial weight),[1]; Study Day 13,1.9 % initial weight
same,average weight change (% initial weight),[1]; Study Day 14,-1.8 % initial weight
same,average weight change (% initial weight),[1]; Study Day 15,-3.4 % initial weight
same,average weight change (% initial weight),[1]; Study Day 16,-4.1 % initial weight
same,average weight change (% initial weight),[1]; Study Day 17,-1.6 % initial weight
same,average weight change (% initial weight),[1]; Study Day 18,-0.5 % initial weight
same,average weight change (% initial weight),[1]; Study Day 19,0.7 % initial weight
same,average weight change (% initial weight),[1]; Study Day 20,2.6 % initial weight
same,average weight change (% initial weight),[1]; Study Day 21,2.0 % initial weight
same,inhibition of most inhibited kinases,340 protein kinases,more than 90%
same,CycK protein content,"CycK; 1µM final concentration, 2h",decreased CycK protein content
same,"minimum effective dose for CycK degradation, times lower than that of CR8",CycK; 2h treatment,approximately 10 times
same,concentration inducing complete CycK degradation,"CycK; 2h treatment, decreasing doses",10 nM
same,in vitro cytotoxic potency,"[2]; panel of human cancer cell lines, in words",low nanomolar potencies
same,cytotoxic potency compared to isopropyl counterpart,"[2]; side-by-side comparison, Figures 1A/1B and 2A/2B",systematically more potent
